# Results reported in patent US6812251B2, “Taurine compounds” (priority 2001, dated 2004).
# What was measured:
# [1] = system: PA1 human ovarian tumor cells; test: Tumor cell growth inhibition, PA1 cells (cell counting); assay type: cell-based; settings: PA-1, 5-100 μM, 3 d (72 h) exposure, electronic cell counting, mean ± SE, read-out: IC50 (concentration required to inhibit cell number by 50%)
# [2] = Growth inhibition of a panel of cell lines by taurolidine; assay type: cell-based; settings: range over all cell lines evaluated; read-out: IC50s, growth inhibition
# [3] = system: DU-145 human prostate tumor cells; test: Flow cytometry (propidium iodide) apoptosis, sub-G0/G1 peak; assay type: cell-based; settings: DU-145 cells, 50 μM, 24 h
# Stability in solution = assay type: physicochemical
# Excerpt: The prolonged stability is an advantage over taurolidine.
smiles,measurement,setting,value
"O=S1(=O)CCN(CN2CCS(=O)(=O)NC2)CN1 [Taurolidine, Bis-(1,1-dioxoperhydro-1,2,4-thiadiazinyl-4)methane]",IC50,[1],11.4 ± 1.8 µM
same,IC50,[2],9.6 to 45 µM
same,% apoptosis (sub-G0/G1 peak area),[3],12.27%
same,stability in solution,Stability in solution,very unstable in solution and spontaneously decomposes
